Measurements from ChEMBL document CHEMBL2375285, “Novel (coumarin-3-yl)carbamates as selective MAO-B inhibitors: synthesis, in vitro and in vivo assays, theoretical evaluation of ADME properties and docking study” (Eur J Med Chem, 2013).
Active and inactive are the calls of the source. No cut-off for these calls is given here.

Experiments:
[1] = system: Mus musculus; assay: Potentiation of L-dopa/carbidopa activity in reserpine-treated CD1 mouse assessed as increase in movement at 100 mg/kg, ip administered 22 hrs post reserpine challenge followed by L-dopa/carbidopa adminstration at 30 mins measured after 1 hr relative to control; assay type: functional, organism-based; set-up: dose 100 mg/kg
[2] = system: Mus musculus; assay: Neurotoxicity in CD1 mouse assessed as decrease in straightening at 10 mg/kg, ip measured for 1 hr relative to control; assay type: toxicity, organism-based; set-up: dose 10 mg/kg, route intraperitoneal; conditions: in vivo
[3] = system: Mus musculus; assay: Potentiation of L-dopa/carbidopa activity in reserpine-treated CD1 mouse assessed as increase in velocity at 100 mg/kg, ip administered 22 hrs post reserpine challenge followed by L-dopa/carbidopa adminstration at 30 mins measured after 1 hr relative to control; assay type: functional, organism-based; set-up: dose 100 mg/kg
[4] = system: Mus musculus; assay: Potentiation of L-dopa/carbidopa activity in reserpine-treated CD1 mouse assessed as increase in motor activity at 100 mg/kg, ip administered 22 hrs post reserpine challenge followed by L-dopa/carbidopa adminstration at 30 mins measured after 1 hr relative to control; assay type: functional, organism-based; set-up: dose 100 mg/kg
[5] = system: Mus musculus; assay: Neurotoxicity in CD1 mouse assessed as decrease in velocity at 10 mg/kg, ip measured for 1 hr relative to control; assay type: toxicity, organism-based; set-up: dose 10 mg/kg, route intraperitoneal; conditions: in vivo
[6] = system: Mus musculus; assay: Neurotoxicity in CD1 mouse assessed as decrease in motor activity at 10 mg/kg, ip measured for 1 hr relative to control; assay type: toxicity, organism-based; set-up: dose 10 mg/kg, route intraperitoneal; conditions: in vivo
[7] = system: Mus musculus; assay: Potentiation of L-dopa/carbidopa activity in reserpine-treated CD1 mouse assessed as increase in motor activity at 10 mg/kg, ip administered 22 hrs post reserpine challenge followed by L-dopa/carbidopa adminstration at 30 mins measured after 1 hr relative to control; assay type: functional, organism-based; set-up: dose 10 mg/kg
[8] = system: Mus musculus; assay: Toxicity in reserpine-treated CD1 mouse assessed as mortality at 100 mg/kg, ip measured for 24 to 48 hrs; assay type: organism-based; set-up: dose 100 mg/kg, route intraperitoneal; conditions: in vivo
[9] = system: Mus musculus; assay: Neurotoxicity in CD1 mouse assessed as decrease in movement at 10 mg/kg, ip measured for 1 hr relative to control; assay type: toxicity, organism-based; set-up: dose 10 mg/kg, route intraperitoneal; conditions: in vivo
[10] = system: Mus musculus; assay: Potentiation of L-dopa/carbidopa activity in reserpine-treated CD1 mouse assessed as increase in straightening at 100 mg/kg, ip administered 22 hrs post reserpine challenge followed by L-dopa/carbidopa adminstration at 30 mins measured after 1 hr relative to control; assay type: functional, organism-based; set-up: dose 100 mg/kg
[11] = system: Mus musculus; assay: Potentiation of L-dopa/carbidopa activity in reserpine-treated CD1 mouse assessed as increase in movement at 10 mg/kg, ip administered 22 hrs post reserpine challenge followed by L-dopa/carbidopa adminstration at 30 mins measured after 1 hr relative to control; assay type: functional, organism-based; set-up: dose 10 mg/kg
[12] = system: Mus musculus; assay: Potentiation of L-dopa/carbidopa activity in reserpine-treated CD1 mouse assessed as increase in straightening at 10 mg/kg, ip administered 22 hrs post reserpine challenge followed by L-dopa/carbidopa adminstration at 30 mins measured after 1 hr relative to control; assay type: functional, organism-based; set-up: dose 10 mg/kg
[13] = system: Mus musculus; assay: Potentiation of L-dopa/carbidopa activity in reserpine-treated CD1 mouse assessed as increase in velocity at 10 mg/kg, ip administered 22 hrs post reserpine challenge followed by L-dopa/carbidopa adminstration at 30 mins measured after 1 hr relative to control; assay type: functional, organism-based; set-up: dose 10 mg/kg

SMILES | Activity [1] | Activity [2] | Activity [3] | Activity [4] | Activity [5] | Activity [6] | Activity [7] | Activity [8] | Activity [9] | Activity [10] | Activity [11] | Activity [12] | Activity [13]
O=C(Nc1cc2ccccc2oc1=O)OCc1ccccc1 | Active | Non-toxic | Active | Active | Non-toxic | Non-toxic | Active | Non-toxic | Non-toxic | Active | Active | – | –
C#CCN(C)[C@H](C)Cc1ccccc1 [SELEGILINE] | – | Toxic | – | – | Toxic | Toxic | Active | – | Toxic | – | Active | Active | Active
